Source: US10131652B2, “Pyrimidinyloxy benzene derivatives as herbicides” (E. I. DU PONT DE NEMOURS AND COMPANY, priority 2014, dated 2018)

Legend:
Format in all cases: in vivo
[1] = system: blackgrass (Alopecurus myosuroides); test: Test B postemergence plant response; settings: 0 to 100 scale, 0 no effect, 100 complete control
How it was run: (§1)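 Seedlings in a loam soil and sand mix received a postemergence application of the formulated chemicals at the one- to two-leaf stage (2–10 cm tall). They were kept in a greenhouse for roughly 10 days, then scored for injury relative to untreated plants, 0 meaning no effect and 100 complete control.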

[2] = system: galium (catchweed bedstraw, Galium aparine); test: Test B postemergence plant response; settings: 0 to 100 scale, 0 no effect, 100 complete control
How it was run: as §1

[3] = system: ragweed (common ragweed, Ambrosia elatior); test: Test B pre-/postemergence plant response; settings: for Ragweed plant response rating: 0 to 100 scale (0 no effect, 100 complete control)
Text: (§2) Seeds of plant species selected from bamyardgrass (Echinochloa crus-galli), kochia (Kochia scoparia), ragweed (common ragweed, Ambrosia elatior), Italian ryegrass (Lolium multiflorum), large (Lg) crabgrass (Digitaria sanguinalis), giant foxtail (Setaria faberii), momingglory (Ipomoea spp.), pigweed (Amaranthus retroflexus), velvetleaf (Abutilon theophrasti), wheat (Triticum aestivum), and corn (Zea mays) were planted into a blend of loam soil and sand and treated preemergence with a directed soil spray using test chemicals formulated in a non-phytotoxic solvent mixture which included a surfactant. At the same time, plants selected from these crop and weed species and also blackgrass (Alopecurus myosuroides), and galium (catchweed bedstraw, Galium aparine) were planted in pots containing the same blend of loam soil and sand and treated with postemergence applications of test chemicals formulated in the same manner. Plants ranged in height from 2 to 10 cm and were in the one- to two-leaf stage for the postemergence treatment. Treated plants and untreated controls were maintained in a greenhouse for approximately 10 days, after which time all treated plants were compared to untreated controls and visually evaluated for injury. Plant response ratings, summarized in Table B, are based on a 0 to 100 scale where 0 is no effect and 100 is complete control. A dash (-) response means no test result.

[4] = system: pigweed (Amaranthus retroflexus); test: Test B pre-/postemergence plant response; settings: for Pigweed plant response rating: 0 to 100 scale (0 no effect, 100 complete control)
Text: as §2

[5] = system: giant foxtail (Setaria faberii); test: Test B pre-/postemergence plant response; settings: for Foxtail, Giant plant response rating: 0 to 100 scale (0 no effect, 100 complete control)
Text: as §2

[6] = system: barnyardgrass (Echinochloa crus-galli); test: Test B pre-/postemergence plant response; settings: for Barnyardgrass plant response rating: 0 to 100 scale (0 no effect, 100 complete control)
Text: as §2

[7] = system: wheat (Triticum aestivum); test: Test B pre-/postemergence plant response; settings: 0 to 100 scale, 0 no effect, 100 complete control
Text: as §2

[8] = system: kochia (Kochia scoparia); test: Test B pre-/postemergence plant response; settings: for Kochia plant response rating: 0 to 100 scale (0 no effect, 100 complete control)
Text: as §2

[9] = system: corn (Zea mays); test: Test B pre-/postemergence plant response; settings: 0 to 100 scale, 0 no effect, 100 complete control
Text: as §2

[10] = system: Italian ryegrass (Lolium multiflorum); test: Test B pre-/postemergence plant response; settings: for Ryegrass, Italian plant response rating: 0 to 100 scale (0 no effect, 100 complete control)
Text: as §2

[11] = system: small-flower umbrella sedge (Cyperus difformis); test: Test C flooded paddy test plant response; settings: Flood, 250 g ai/ha; scale of 0 to 100 where 0 is no effect and 100 is complete control; 13 to 15 days
How it was run: (§3)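 Plants grown to 2-leaf stage, flooded 3 cm above soil; compounds applied directly into paddy water, depth kept throughout. Visual rating versus controls after 13 to 15 days in greenhouse, 0 (no effect) to 100 (complete control).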

[12] = system: rice (Oryza sativa); test: Test C flooded paddy test plant response; settings: Flood, 250 g ai/ha; scale of 0 to 100 where 0 is no effect and 100 is complete control; 13 to 15 days
How it was run: as §3

[13] = system: barnyardgrass (Echinochloa crus-galli); test: Test C flooded paddy test plant response; settings: Flood, 250 g ai/ha; scale of 0 to 100 where 0 is no effect and 100 is complete control; 13 to 15 days
How it was run: as §3

[14] = system: ducksalad (Heteranthera limosa); test: Test C flooded paddy test plant response; settings: Flood, 250 g ai/ha; scale of 0 to 100 where 0 is no effect and 100 is complete control; 13 to 15 days
How it was run: as §3

[15] = 31 g ai/ha, Postemergence, 0 to 100 scale, 0 no effect, 100 complete control
[16] = 125 g ai/ha, postemergence, 0 to 100 scale, 0 no effect, 100 complete control
[17] = Preemergence, 125 g ai/ha, 0 to 100 scale where 0 is no effect and 100 is complete control

SMILES: COc1cccc(Oc2ncc(Cl)cn2)c1-c1cc(C(F)(F)F)on1 [Compound 105]
- Plant response rating, Blackgrass ([1]; 31 g ai/ha, Postemergence): 70
- Plant response rating, Blackgrass ([1]; 125 g ai/ha, postemergence): 100
- Plant response rating, Galium ([2]; 31 g ai/ha, Postemergence): 70
- Plant response rating, Galium ([2]; 125 g ai/ha, postemergence): 100
- Plant response rating, Ragweed [3, 15]: 10
- Plant response rating, Ragweed [3, 16]: 30
- Ragweed plant response rating ([3]; Preemergence, 31 g ai/ha): 0
- Plant response rating, Ragweed [3, 17]: 0
- Plant response rating, Pigweed [4, 15]: 90
- Plant response rating, Pigweed [4, 16]: 100
- Pigweed plant response rating ([4]; Preemergence, 31 g ai/ha): 100
- Plant response rating, Pigweed [4, 17]: 100
- Plant response rating, Foxtail, Giant [5, 15]: 40
- Plant response rating, Foxtail, Giant [5, 16]: 80
- Foxtail, Giant plant response rating ([5]; Preemergence, 31 g ai/ha): 70
- Plant response rating, Foxtail, Giant [5, 17]: 100
- Plant response rating, Barnyardgrass [6, 15]: 10
- Plant response rating, Barnyardgrass [6, 16]: 70
- Barnyardgrass plant response rating ([6]; Preemergence, 31 g ai/ha): 20
- Plant response rating, Barnyardgrass [6, 17]: 90
- Plant response rating, Wheat ([7]; 31 g ai/ha, Postemergence): 0
- Plant response rating, Wheat ([7]; 125 g ai/ha, postemergence): 10
- Plant response rating, Kochia [8, 15]: 30
- Plant response rating, Kochia [8, 16]: 70
- Kochia plant response rating ([8]; Preemergence, 31 g ai/ha): 0
- Plant response rating, Kochia [8, 17]: 10
- Plant response rating, Corn ([9]; 31 g ai/ha, Postemergence): 10
- Plant response rating, Corn ([9]; 125 g ai/ha, postemergence): 20
- Plant response rating, Ryegrass, Italian [10, 15]: 0
- Plant response rating, Ryegrass, Italian [10, 16]: 10
- Ryegrass, Italian plant response rating ([10]; Preemergence, 31 g ai/ha): 0
- Plant response rating, Ryegrass, Italian [10, 17]: 20
- Sedge, Umbrella plant response rating [11]: 70
- Rice plant response rating [12]: 35
- Barnyardgrass plant response rating [13]: 45
- Ducksalad plant response rating [14]: 40

SMILES: Cc1nnc(-c2ccccc2Oc2ncc(Cl)cn2)o1 [Compound 106]
- Plant response rating, Blackgrass ([1]; 31 g ai/ha, Postemergence): 0
- Plant response rating, Blackgrass ([1]; 125 g ai/ha, postemergence): 0
- Plant response rating, Galium ([2]; 31 g ai/ha, Postemergence): 0
- Plant response rating, Galium ([2]; 125 g ai/ha, postemergence): 0
- Plant response rating, Ragweed [3, 15]: 0
- Plant response rating, Ragweed [3, 16]: 0
- Ragweed plant response rating ([3]; Preemergence, 31 g ai/ha): 0
- Plant response rating, Ragweed [3, 17]: 0
- Plant response rating, Pigweed [4, 15]: 0
- Plant response rating, Pigweed [4, 16]: 0
- Pigweed plant response rating ([4]; Preemergence, 31 g ai/ha): 0
- Plant response rating, Pigweed [4, 17]: 0
- Plant response rating, Foxtail, Giant [5, 15]: 0
- Plant response rating, Foxtail, Giant [5, 16]: 0
- Foxtail, Giant plant response rating ([5]; Preemergence, 31 g ai/ha): 0
- Plant response rating, Foxtail, Giant [5, 17]: 0
- Plant response rating, Barnyardgrass [6, 15]: 0
- Plant response rating, Barnyardgrass [6, 16]: 0
- Barnyardgrass plant response rating ([6]; Preemergence, 31 g ai/ha): 0
- Plant response rating, Barnyardgrass [6, 17]: 0
- Plant response rating, Wheat ([7]; 31 g ai/ha, Postemergence): 0
- Plant response rating, Wheat ([7]; 125 g ai/ha, postemergence): 0
- Plant response rating, Kochia [8, 15]: 0
- Plant response rating, Kochia [8, 16]: 0
- Kochia plant response rating ([8]; Preemergence, 31 g ai/ha): 0
- Plant response rating, Kochia [8, 17]: 0
- Plant response rating, Corn ([9]; 31 g ai/ha, Postemergence): 0
- Plant response rating, Corn ([9]; 125 g ai/ha, postemergence): 0
- Plant response rating, Ryegrass, Italian [10, 15]: 0
- Plant response rating, Ryegrass, Italian [10, 16]: 0
- Ryegrass, Italian plant response rating ([10]; Preemergence, 31 g ai/ha): 0
- Plant response rating, Ryegrass, Italian [10, 17]: 0
- Sedge, Umbrella plant response rating [11]: 0
- Rice plant response rating [12]: 0
- Barnyardgrass plant response rating [13]: 0
- Ducksalad plant response rating [14]: 0

SMILES: Fc1cc(F)c(-c2cc(C(F)F)no2)c(Oc2ncc(Cl)cn2)c1 [Compound 107]
- Plant response rating, Blackgrass ([1]; 31 g ai/ha, Postemergence): 0
- Plant response rating, Blackgrass ([1]; 125 g ai/ha, postemergence): 0
- Plant response rating, Galium ([2]; 31 g ai/ha, Postemergence): 0
- Plant response rating, Galium ([2]; 125 g ai/ha, postemergence): 0
- Plant response rating, Ragweed [3, 15]: 0
- Plant response rating, Ragweed [3, 16]: 0
- Ragweed plant response rating ([3]; Preemergence, 31 g ai/ha): 0
- Plant response rating, Ragweed [3, 17]: 0
- Plant response rating, Pigweed [4, 15]: 0
- Plant response rating, Pigweed [4, 16]: 0
- Pigweed plant response rating ([4]; Preemergence, 31 g ai/ha): 0
- Plant response rating, Pigweed [4, 17]: 0
- Plant response rating, Foxtail, Giant [5, 15]: 0
- Plant response rating, Foxtail, Giant [5, 16]: 0
- Foxtail, Giant plant response rating ([5]; Preemergence, 31 g ai/ha): 0
- Plant response rating, Foxtail, Giant [5, 17]: 0
- Plant response rating, Barnyardgrass [6, 15]: 0
- Plant response rating, Barnyardgrass [6, 16]: 0
- Barnyardgrass plant response rating ([6]; Preemergence, 31 g ai/ha): 0
- Plant response rating, Barnyardgrass [6, 17]: 0
- Plant response rating, Wheat ([7]; 31 g ai/ha, Postemergence): 0
- Plant response rating, Wheat ([7]; 125 g ai/ha, postemergence): 0
- Plant response rating, Kochia [8, 15]: 0
- Plant response rating, Kochia [8, 16]: 0
- Kochia plant response rating ([8]; Preemergence, 31 g ai/ha): 0
- Plant response rating, Kochia [8, 17]: 0
- Plant response rating, Corn ([9]; 31 g ai/ha, Postemergence): 0
- Plant response rating, Corn ([9]; 125 g ai/ha, postemergence): 0
- Plant response rating, Ryegrass, Italian [10, 15]: 0
- Plant response rating, Ryegrass, Italian [10, 16]: 0
- Ryegrass, Italian plant response rating ([10]; Preemergence, 31 g ai/ha): 0
- Plant response rating, Ryegrass, Italian [10, 17]: 0
- Sedge, Umbrella plant response rating [11]: 0
- Rice plant response rating [12]: 0
- Barnyardgrass plant response rating [13]: 0
- Ducksalad plant response rating [14]: 0
